Data published in PubChem BioAssay (NCI).
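Assay format: 96-well plates, 48-hour exposure. TGI: concentration producing complete growth inhibition.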

Experiments:
Experiment in all cases: DTP human tumour cell line panel, 48 h
[1] = system: PC-3 prostate
[2] = system: RPMI-8226 leukemia
[3] = system: IGROV1 ovarian
[4] = system: OVCAR-5 ovarian
[5] = system: UACC-62 melanoma
[6] = system: U251 CNS
[7] = system: NCI-H460 lung
[8] = system: HT29 colon
[9] = system: HCT-15 colon
[10] = system: SNB-75 CNS

Compound	TGI [1]	TGI [2]	TGI [3]	TGI [4]	TGI [5]	TGI [6]	TGI [7]	TGI [8]	TGI [9]	TGI [10]
C=CCCC1(CC(Sc2ccccc2)P(=O)(c2ccccc2)c2ccccc2)OCCO1 (stereo not drawn)	> 10 µM	> 10 µM	> 10 µM	> 10 µM	> 10 µM	> 10 µM	> 10 µM	> 10 µM	> 10 µM	–
Cn1c(O)c(C(=O)NC2CCCCC2)c(=O)n(C)c1=S	–	17.2 µM	27.8 µM	38.9 µM	14.4 µM	26.7 µM	21.9 µM	–	25.9 µM	–
O=C1NC(=S)NC(=O)C1C(c1ccc(O)cc1)C1C(=O)NC(=S)NC1=O	> 100 µM	> 100 µM	> 100 µM	> 100 µM	> 100 µM	> 100 µM	> 100 µM	> 100 µM	> 100 µM	–
O=C(Nc1cc(Cl)c(Cl)cc1Cl)C(=O)C1C(=O)NC(=S)NC1=O	–	> 100 µM	> 100 µM	> 100 µM	> 100 µM	> 100 µM	> 100 µM	> 100 µM	> 100 µM	> 100 µM
CCCCC1Cc2ccccc2-c2nc3ccccc3n21 (stereo not drawn)	22.1 µM	32.5 µM	32.9 µM	31.4 µM	–	30.9 µM	28.8 µM	29.6 µM	28.4 µM	–
CC1=CCC(O)C=CC(C)C(O)C(C)C=C(C)C(=O)c2c(O)c(C)cc3c2C(=O)C(N)=C(NC(=O)/C=C\C=C/C=CC(C)C(O)CC1=O)C3=O (stereo not drawn)	–	> 100 µM	> 100 µM	> 100 µM	> 100 µM	> 100 µM	–	> 100 µM	> 100 µM	> 100 µM
N#C/C(=C/NC(N)=S)C(N)=O	–	–	> 100 µM	> 100 µM	–	> 100 µM	> 100 µM	> 100 µM	> 100 µM	> 100 µM
O=Cc1ccccc1COC(=O)c1cc(C(=O)OCc2ccccc2C=O)c(C(=O)OCc2ccccc2C=O)cc1C(=O)OCc1ccccc1C=O	–	> 100 µM	> 100 µM	> 100 µM	> 100 µM	> 100 µM	> 100 µM	> 100 µM	> 100 µM	65.4 µM
Cc1cc(N(CCC#N)CCC#N)ccc1/C=C(\NC(=O)/C=C/c1ccccc1)C(N)=O	–	> 100 µM	> 100 µM	> 100 µM	> 100 µM	> 100 µM	> 100 µM	> 100 µM	> 100 µM	> 100 µM
CCN(CC)C1CC(O[C@H]2C[C@](O)(C(=O)CO)Cc3c(O)c4c(c(O)c32)C(=O)c2c(OC)cccc2C4=O)OC(C)C1O (stereo partly drawn)	–	0.31 µM	4.66 µM	0.561 µM	0.0968 µM	1.19 µM	0.146 µM	1.64 µM	3.54 µM	0.184 µM
Nc1nc([O-])c2c(n1)[n+](C1OC(CO)C(O)C1O)cn2CCO (stereo not drawn)	–	> 100 µM	> 100 µM	> 100 µM	> 100 µM	> 100 µM	> 100 µM	> 100 µM	> 100 µM	> 100 µM
CCO/C=N\C1=C(C#N)SC2=N/C(=C\c3ccc(OC)cc3)C(=O)N21	–	> 100 µM	> 100 µM	> 100 µM	–	> 100 µM	–	> 100 µM	> 100 µM	46.6 µM
C[Si](C)(C)OC1CC(=O)OC1n1cc(F)c(=O)[nH]c1=O (stereo not drawn)	–	40.4 µM	> 100 µM	> 100 µM	> 100 µM	> 100 µM	> 100 µM	> 100 µM	> 54 µM	> 100 µM
CC(=O)OC1C(Oc2c(C)cc3c(c2O)[C@@H](C)CC[C@@H]3[C@@H](C)CCC=C(C)C)OCC(O)C1O (stereo partly drawn)	39.6 µM	–	37.9 µM	30.6 µM	34.9 µM	32.3 µM	33.2 µM	27.6 µM	34.1 µM	–
Cc1ccc2c3c1O[C@H]1c4[nH]c5ccccc5c4C[C@@]4(O)[C@@H](C2)N(CC2CC2)CC[C@]314	24.9 µM	29.4 µM	32 µM	35.1 µM	30.1 µM	28.2 µM	30.5 µM	18.7 µM	38.1 µM	–
C[N+]1(C)CCc2cc(O)c(O)cc2C1Cc1ccc(O)c(O)c1 (stereo not drawn)	> 100 µM	65.9 µM	> 100 µM	> 100 µM	> 100 µM	> 100 µM	> 100 µM	> 100 µM	> 100 µM	–
O=c1cc(-c2ccc(Oc3ccccc3)cc2)[nH]c2cc3c(cc12)OCO3	–	> 100 µM	> 100 µM	–	> 100 µM	> 100 µM	> 100 µM	> 100 µM	> 100 µM	> 100 µM
